Test results: ChEMBL document CHEMBL1201862, “PubChem BioAssay data set” (2004)
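A five-concentration, 48-hour dose response in 96-well plates underlies each endpoint, interpolated linearly between surrounding concentrations. GI50 marks 50% less growth.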 Calls of active or inactive are those of the source. No stated cut-off is given here; in the data, active = GI50 up to about 1.1 µM and inactive = higher.

Experiments:
Assay in all cases: NCI-60 cell line screen, 48 h
786-0 = test system: 786-0
A498 = test system: A498
CAKI-1 = test system: CAKI-1
CCRF-CEM = test system: CCRF-CEM
HCC 2998 = test system: HCC 2998
HCT-15 = test system: HCT-15
HOP-62 = test system: HOP-62
HOP-92 = test system: HOP-92
IGROV-1 = test system: IGROV-1
M14 = test system: M14
M19-MEL = test system: M19-MEL
OVCAR-3 = test system: OVCAR-3
SK-MEL-5 = test system: SK-MEL-5
SNB-75 = test system: SNB-75
KM12 = test system: KM12
MCF7 = test system: MCF7
MDA-MB-231 = test system: MDA-MB-231
MDA-N = test system: MDA-N
NCI/ADR-RES = test system: NCI/ADR-RES
PC-3 = test system: PC-3

Row | SMILES | GI50 (786-0) | GI50 (A498) | GI50 (CAKI-1) | GI50 (CCRF-CEM) | GI50 (HCC 2998) | GI50 (HCT-15) [µM] | GI50 (HOP-62) | GI50 (HOP-92) | GI50 (IGROV-1) | GI50 (M14) | GI50 (M19-MEL) | GI50 (OVCAR-3) | GI50 (SK-MEL-5) | GI50 (SNB-75) | GI50 (KM12) | GI50 (MCF7) | GI50 (MDA-MB-231) | GI50 (MDA-N) | GI50 (NCI/ADR-RES) | GI50 (PC-3)
1 | NNC(=O)N/N=C1/C(=O)N(c2ccc(Cl)c(Cl)c2)C(=O)C(=O)C1c1nc2ccccc2o1 (stereo unspecified) | > 100 µM (inactive) | > 100 µM (inactive) | > 100 µM (inactive) | > 100 µM (inactive) | > 100 µM (inactive) | > 100 | > 100 µM (inactive) | > 100 µM (inactive) | > 100 µM (inactive) | > 100 µM (inactive) | > 100 µM (inactive) | > 100 µM (inactive) | > 100 µM (inactive) | > 100 µM (inactive) | – | – | – | – | – | –
2 | Cc1oc2c(C)c3oc(=O)cc(C)c3cc2c1CN1C(=O)C2OCCOCCOCCOCCOCCO[C@H]2C1=O (stereo partly specified) | > 100 µM (inactive) | > 100 µM (inactive) | > 100 µM (inactive) | > 100 µM (inactive) | > 100 µM (inactive) | > 100 | > 100 µM (inactive) | > 100 µM (inactive) | > 100 µM (inactive) | > 100 µM (inactive) | > 100 µM (inactive) | > 100 µM (inactive) | > 100 µM (inactive) | > 100 µM (inactive) | > 100 µM (inactive) | – | – | – | – | –
3 | O=S(=O)(c1ccccc1)c1nccs1 | > 100 µM (inactive) | > 100 µM (inactive) | > 100 µM (inactive) | – | > 100 µM (inactive) | > 100 | > 100 µM (inactive) | – | > 100 µM (inactive) | > 100 µM (inactive) | > 100 µM (inactive) | > 100 µM (inactive) | > 100 µM (inactive) | > 100 µM (inactive) | > 100 µM (inactive) | – | – | – | – | –
4 | NS(=O)(=O)c1ccc(NC(=O)c2cccc3cc4ccccc4nc23)cc1 | 12.8 µM (inactive) | > 43.7 µM (inactive) | 10.1 µM (inactive) | 7.71 µM (inactive) | > 100 µM (inactive) | 12.6 | > 58.6 µM (inactive) | 15.1 µM (inactive) | > 78.2 µM (inactive) | > 72.1 µM (inactive) | 37.2 µM (inactive) | 46.6 µM (inactive) | 17.3 µM (inactive) | > 37.4 µM (inactive) | 11.3 µM (inactive) | 6.68 µM (inactive) | > 100 µM (inactive) | 13 µM (inactive) | 11.8 µM (inactive) | 37.3 µM (inactive)
5 | CNS(=O)(=O)NNS(=O)(=O)c1ccc(C)cc1 | > 100 µM (inactive) | > 100 µM (inactive) | > 100 µM (inactive) | > 100 µM (inactive) | > 100 µM (inactive) | – | > 100 µM (inactive) | > 100 µM (inactive) | > 100 µM (inactive) | > 100 µM (inactive) | > 100 µM (inactive) | > 100 µM (inactive) | > 100 µM (inactive) | – | > 100 µM (inactive) | – | – | – | – | –
6 | CC#N.O[C@@H]1CCCC[C@H]1O.O[C@@H]1CCCC[C@H]1O.[TeH2] | 48.8 µM (inactive) | > 100 µM (inactive) | > 100 µM (inactive) | 20.2 µM (inactive) | > 100 µM (inactive) | 18.1 | 53.5 µM (inactive) | 26.2 µM (inactive) | 41.6 µM (inactive) | > 100 µM (inactive) | 21.5 µM (inactive) | 19.1 µM (inactive) | 33.3 µM (inactive) | > 100 µM (inactive) | 42.7 µM (inactive) | – | – | – | – | –
7 | CCCCCCCC(=O)OC(COC(=O)Cc1ccccc1)COC(=O)C(C)(C)C (stereo unspecified) | > 100 µM (inactive) | > 100 µM (inactive) | > 100 µM (inactive) | > 100 µM (inactive) | > 100 µM (inactive) | > 100 | > 100 µM (inactive) | 32.8 µM (inactive) | > 100 µM (inactive) | > 100 µM (inactive) | > 100 µM (inactive) | > 100 µM (inactive) | 74 µM (inactive) | – | – | – | – | – | – | –
8 | Cc1cccc(C)c1NC(=O)CCCC(=O)CC(=O)/C=C/c1ccccc1 | > 100 µM (inactive) | > 100 µM (inactive) | > 100 µM (inactive) | > 100 µM (inactive) | – | > 100 | – | > 100 µM (inactive) | > 100 µM (inactive) | > 100 µM (inactive) | > 100 µM (inactive) | > 100 µM (inactive) | > 100 µM (inactive) | > 100 µM (inactive) | > 100 µM (inactive) | – | – | – | – | –
9 | CN(C)CCC1(C2=CCCC2)CC/C(=C\c2ccc3c(c2)OCO3)C1=O (stereo unspecified) | 14 µM (inactive) | 12.2 µM (inactive) | – | 16 µM (inactive) | 15.8 µM (inactive) | 13.9 | – | 11.4 µM (inactive) | > 10 µM (inactive) | 14.7 µM (inactive) | 18.6 µM (inactive) | 15.8 µM (inactive) | 14.1 µM (inactive) | – | 15.8 µM (inactive) | – | – | – | – | –
10 | COc1ccccc1NC(=O)CSC(N)=O | 19.1 µM (inactive) | > 100 µM (inactive) | 33.6 µM (inactive) | 12.9 µM (inactive) | > 100 µM (inactive) | 42.8 | 24.7 µM (inactive) | > 100 µM (inactive) | 66.5 µM (inactive) | 45.4 µM (inactive) | 29.2 µM (inactive) | 57.8 µM (inactive) | 47.8 µM (inactive) | 30 µM (inactive) | 49.5 µM (inactive) | – | – | – | – | –
11 | Cc1ccc2nc(/C(=C/c3ccc(/C=C(\NC(=O)c4ccccc4)c4nc5ccc(C)cc5[nH]4)c(C)c3)NC(=O)c3ccccc3)[nH]c2c1 | 9.02 µM (inactive) | 11.4 µM (inactive) | 35.2 µM (inactive) | 3.02 µM (inactive) | – | 3.13 | 46.6 µM (inactive) | 16.4 µM (inactive) | 1.81 µM (inactive) | 23 µM (inactive) | 4.36 µM (inactive) | 6.19 µM (inactive) | 1.91 µM (inactive) | 7.08 µM (inactive) | 17.1 µM (inactive) | – | – | – | – | –
12 | COC(=O)c1sc(C(=O)OC)c2c1C[S+]([O-])C2 | > 100 µM (inactive) | > 100 µM (inactive) | > 100 µM (inactive) | > 100 µM (inactive) | > 100 µM (inactive) | > 100 | – | > 100 µM (inactive) | > 100 µM (inactive) | > 100 µM (inactive) | > 100 µM (inactive) | > 100 µM (inactive) | > 100 µM (inactive) | > 100 µM (inactive) | > 100 µM (inactive) | – | – | – | – | –
13 | O=C1N[C@@H]2CCCC[C@@H]2C12CCCCC2 | > 100 µM (inactive) | > 100 µM (inactive) | – | > 100 µM (inactive) | > 100 µM (inactive) | – | > 100 µM (inactive) | – | > 100 µM (inactive) | > 100 µM (inactive) | > 100 µM (inactive) | > 100 µM (inactive) | – | > 100 µM (inactive) | > 100 µM (inactive) | – | – | – | – | –
14 | CCN(CC)c1ccc(/N=N\c2ccc(-c3nc4ccc[n+](C)c4s3)cc2)cc1 | 17.1 µM (inactive) | 13.4 µM (inactive) | 19.7 µM (inactive) | 3.05 µM (inactive) | – | 16.7 | 17.3 µM (inactive) | 10.6 µM (inactive) | 8.18 µM (inactive) | 13.2 µM (inactive) | 3.55 µM (inactive) | 3.53 µM (inactive) | 5.48 µM (inactive) | 9.4 µM (inactive) | 2.76 µM (inactive) | – | – | – | – | –
